Source: patent US5817669A, “Compounds, processes for the preparation thereof and anti-tumor agents” (Dainippon Pharmaceutical Co., Ltd., priority 1994, dated 1998)
Converted amounts (≈) assume the structure as drawn. Read-outs that look alike come from different tables or passages of the source.

How the values were obtained:
[1] = test system: MKN45 human stomach cancer; assay: In vitro anti-tumor activity against MKN45 human stomach cancer (MTT); format: cell-based; conditions: MKN-45, MKN45, 72 h, MTT, read-out: IC50
Description: (§1) A culture medium containing 500 to 2,000 human cancer cells was put in an amount of 0.1 ml in each well of 96-well plate, and the cells were cultured for 20 hours under a condition of 37° C. and 5% carbon dioxide gas in air. After the culturing, a solution of test compounds of predetermined concentration was added, and then, the cells were cultured for further 72 hours. After the culturing, an MTT (5 mg/ml) solution was added in an amount of 0.01 ml in the respective wells, and the cells were cultured for further 4 hours. The supernatants of the culture medium were removed by suction, and then, 0.1 ml of dimethyl sulfoxide was put in respective well to dissolve the formed formazan, and, moreover, 0.1 ml of dimethyl sulfoxide was added.

[2] = test system: WiDr human colorectal cancer; assay: In vitro anti-tumor activity against WiDr human colorectal cancer (MTT); format: cell-based; conditions: 72 h, MTT, read-out: IC50
Description: as §1

[3] = test system: KB human nasopharynx cancer; assay: In vitro anti-tumor activity against KB human nasopharynx cancer (MTT); format: cell-based; conditions: KB, 72 h, MTT, read-out: IC50
Description: as §1

[4] = test system: C33A human cervix cancer; assay: In vitro anti-tumor activity against C-33A human cervix cancer (MTT); format: cell-based; conditions: C-33A, 72 h, MTT, read-out: IC50
Description: as §1

[5] = test system: murine P388 lymphocytic leukemia cells; assay: In vitro anti-tumor activity against murine P388 lymphocytic leukemia cells (MTT, 72 h); format: cell-based; conditions: Mus musculus; murine P388 cells, 72 h, MTT; read-out: IC50 (50% proliferation inhibitory concentration)
Description: Test compounds were tested for anti-tumor activity according to MTT [3-(4,5-dimethylthiazol-2-yl)-2,5-diphenyltetrazolium bromide] method, using murine P388 lymphocytic leukemia cells. […] The culture medium was centrifuged (4° C., 2,000 rpm for 20 minutes), and thus, the supernatants were removed by suction. Then, 0.1 ml of dimethyl sulfoxide was put in each well to dissolve the formed formazan, and, subsequently, another 0.1 ml of dimethyl sulfoxide was added. The absorbance (OD) of each of the obtained solutions was measured by use of Multiskan Bichromatic (main wavelength 570 nm, sub-wavelength 690 nm). […] IC50 :μg/ml) were calculated by the least squares method.

[6] = test system: colon 26 murine tumor cells; assay: Tumor growth inhibition effect on colon 26 murine tumor cells implanted mice; format: in vivo, SLC: CDF1 mice; conditions: Mus musculus, Colon 26, 504 h, ip, days 1-9, day 21 or 22, read-out: Tumor growth inhibition rate IR (%); for inhibition in vivo at 3.13 mg/kg: 3.13 mg/kg once a day; for inhibition in vivo at 1.56 mg/kg: 1.56 mg/kg once a day; for inhibition in vivo at 6.25 mg/kg: 6.25 mg/kg once a day
Description: A 2% brei of colon 26 murine tumor cells was intracutaneously implanted each 0.1 ml in the abdominal part of SLC: CDF1 female mice (7 to 9 weeks old, 7 animals per one group). […] The obtained solutions were intraperitoneally (ip) administered each 0.2 ml once a day, from the day (1st day) following the implantation to the 9th day. On the 21st or 22nd day after the implantation, tumor weight was estimated from tumor diameters, and thus, the tumor growth inhibition rate (IR %) of the drug administered group in comparison with the control group was calculated according to the following equation. IR (%)=[1-{(MTW in the treated group)/(MTW in the control group)}]×10 0 MTW: mean tumor weight

[7] = test system: HMV2 human melanoma; assay: In vitro anti-tumor activity against HMV-2 human melanoma (MTT); format: cell-based; conditions: HMV-2, 72 h, MTT, read-out: IC50
Description: as §1

[8] = test system: A427 human lung cancer; assay: In vitro anti-tumor activity against A-427 human lung cancer (MTT); format: cell-based; conditions: A-427, 72 h, MTT, read-out: IC50
Description: as §1

[9] = test system: murine P388 lymphocytic leukemia cells; assay: Increases in life span of mice implanted with murine P388 lymphocytic leukemia cells; format: in vivo, SLC: BDF1 mice; conditions: Mus musculus, P388, ip, 720 h, ip
Description: 1×10^6 murine P388 lymphocytic leukemia cells were intraperitoneally implanted in each of SLC: BDF1 mice (8 to 10 weeks old, female, 7 animals per one group). A test compound (drug) was either dissolved in 0.1 N--NaOH or suspended in 0.4% carboxymethylcellulose solution, and the resultant solution or suspension was diluted with distilled water or 0.4% carboxymethylcellulose solution so as to give predetermined concentrations for administration. The obtained solution was intraperitoneally (ip) administered twice, namely on the day following the implantation (1st day) and the 5th day, each 0.2 ml. The life and death of the mice were observed over a period of 30 days, and the median survival time (hereinafter referred to as MST) was determined for each group, and, thus, the increase in life span (ILS; %) was calculated according to the following equation:
ILS (%)=[{(MST of the test group)/(MST of the control group)}-1]×100
Drug effect was judged in the following manner, according to the criterion of U.S. National Cancer Institute (NCI):
ILS=75% or higher: ++ (remarkably effective);
20 to 74%: + (effective);
19% or lower: - (ineffective)

[10] = test system: AZ521 human stomach cancer; assay: In vitro anti-tumor activity against AZ-521 human stomach cancer (MTT); format: cell-based; conditions: AZ-521, 72 h, MTT, read-out: IC50
Description: as §1

[11] = NCI criterion, read-out: Evaluation
[12] = days 1 and 5, in suspension, read-out: ILS (%) (in suspension)

| IC50 [1] [µg/mL] | IC50 [2] [µg/mL] | IC50 [3] [µg/mL] | IC50 [4] [µg/mL] | IC50 [5] [µg/mL] | IC50 [7] [µg/mL] | IC50 [8] [µg/mL] | IC50 [10] [µg/mL] | Structure (SMILES) | inhibition in vivo at 3.13 mg/kg [6] [%] | ILS at 3.13 mg/kg [9, 11] [%] | ILS at 12.5 mg/kg [9, 11] [%] | ILS at 3.13 mg/kg [9, 12] [%] | ILS at 12.5 mg/kg [9, 12] [%] | inhibition in vivo at 1.56 mg/kg [6] [%] | ILS at 50 mg/kg [9, 11] [%] | ILS at 50 mg/kg [9, 12] [%] | inhibition in vivo at 0.78 mg/kg ([6]; 0.78 mg/kg once a day) [%] | inhibition in vivo at 6.25 mg/kg [6] [%] | inhibition in vivo at 1.1 mg/kg ([6]; 1.10 mg/kg once a day) [%] |
| --- | --- | --- | --- | --- | --- | --- | --- | --- | --- | --- | --- | --- | --- | --- | --- | --- | --- | --- | --- |
| 0.131 (≈ 0.326 µM) | 0.273 (≈ 0.68 µM) | 0.147 (≈ 0.366 µM) | 0.143 (≈ 0.356 µM) | 0.02 (≈ 0.0498 µM) | 0.197 (≈ 0.491 µM) | 0.158 (≈ 0.394 µM) | 0.0985 (≈ 0.245 µM) | CN[C@@H]1CN(c2ccc3c(=O)c(C(=O)O)cn(-c4nccs4)c3n2)C[C@@H]1OC (relative stereo) [Compound 1-4] | 61 | 20 to 74 | > 75 | 25 | 100 | – | – | – | – | – | – |
| 0.112 (≈ 0.302 µM) | 0.314 (≈ 0.845 µM) | 0.111 (≈ 0.299 µM) | 0.105 (≈ 0.283 µM) | 0.00955 (≈ 0.0257 µM) | 0.139 (≈ 0.374 µM) | 0.0933 (≈ 0.251 µM) | 0.0719 (≈ 0.194 µM) | C[C@@H]1CN(c2ccc3c(=O)c(C(=O)O)cn(-c4nccs4)c3n2)C[C@H]1N (relative stereo) [Compound 7] | 95 | > 75 | > 75 | 75 | 100 | 61 | > 75 | 188 | – | – | – |
| 0.144 | 0.264 | 0.179 | 0.161 | 0.0309 | 0.214 | 0.0749 | 0.0307 | CN[C@@H]1CN(c2ccc3c(=O)c(C=O)cn(-c4nccs4)c3n2)C[C@H]1OC.Cl (relative stereo) [Compound 11, 3-Formyl-1,4-dihydro-7-(trans-3-methoxy-4-methylamino-1-pyrrolidinyl)-4-oxo-1-(2-thiazolyl)-1,8-naphthyridine hydrochloride] | – | > 75 | > 75 | 88 | 150 | 58 | > 75 | 225 | 50 | – | – |
| 0.164 (≈ 0.425 µM) | 0.295 (≈ 0.765 µM) | 0.125 (≈ 0.324 µM) | 0.131 (≈ 0.34 µM) | 0.0195 (≈ 0.0506 µM) | 0.265 (≈ 0.688 µM) | 0.146 (≈ 0.379 µM) | 0.101 (≈ 0.262 µM) | C[C@@H]1CN(c2ccc3c(=O)c(C(=O)O)cn(-c4nccs4)c3n2)C[C@@]1(C)N (relative stereo) [Compound 12] | 48 | – | > 75 | – | 75 | – | – | – | – | 84 | – |
| 0.139 (≈ 0.335 µM) | 0.268 (≈ 0.645 µM) | 0.15 (≈ 0.361 µM) | 0.138 (≈ 0.332 µM) | 0.0252 (≈ 0.0607 µM) | 0.171 (≈ 0.412 µM) | 0.15 (≈ 0.361 µM) | 0.0717 (≈ 0.173 µM) | CCN[C@@H]1CN(c2ccc3c(=O)c(C(=O)O)cn(-c4nccs4)c3n2)C[C@H]1OC (relative stereo) [Compound 13] | – | 20 to 74 | > 75 | 25 | 100 | 41 | > 75 | 213 | – | – | – |
| 0.0964 (≈ 0.231 µM) | 0.259 (≈ 0.622 µM) | 0.0604 (≈ 0.145 µM) | 0.0854 (≈ 0.205 µM) | 0.0157 (≈ 0.0377 µM) | 0.119 (≈ 0.286 µM) | 0.0696 (≈ 0.167 µM) | 0.0288 (≈ 0.0692 µM) | CN[C@@H]1CN(c2cc(N)c3c(=O)c(C(=O)O)cn(-c4nccs4)c3n2)C[C@H]1OC (relative stereo) [Compound 15] | 68 | > 75 | > 75 | 88 | 200 | – | > 75 | 238 | – | – | – |
| 0.148 (≈ 0.353 µM) | 0.322 (≈ 0.768 µM) | 0.126 (≈ 0.3 µM) | 0.132 (≈ 0.315 µM) | 0.0344 (≈ 0.082 µM) | 0.181 (≈ 0.432 µM) | 0.145 (≈ 0.346 µM) | 0.0798 (≈ 0.19 µM) | CN[C@@H]1CN(c2ccc3c(=O)c(C(=O)O)cn(-c4nc(F)cs4)c3n2)C[C@H]1OC (relative stereo) [Compound 16] | 77 | 20 to 74 | > 75 | 38 | 138 | – | > 75 | 238 | – | – | – |
| – | – | – | – | – | – | – | – | C[C@@H]1[C@@H](N)CCN1c1ccc2c(=O)c(C(=O)O)cn(-c3nccs3)c2n1 (relative stereo) [Compound 17] | – | – | – | – | – | – | > 75 | 150 | – | – | – |
| – | – | 0.636 (≈ 1.77 µM) | – | 0.0466 (≈ 0.13 µM) | 0.872 (≈ 2.43 µM) | – | 0.31 (≈ 0.865 µM) | NC1CCN(c2ncc3c(=O)c(C(=O)O)cn(-c4nccs4)c3n2)C1 (centres unmarked) [Compound 14] | 55 | 20 to 74 | > 75 | 63 | 113 | – | > 75 | > 275 | – | 68 | – |

| Structure (SMILES) | IC50 [1] [µg/mL] | IC50 [2] [µg/mL] | IC50 [3] [µg/mL] | IC50 [4] [µg/mL] | IC50 [5] [µg/mL] | IC50 [7] [µg/mL] | IC50 [8] [µg/mL] | IC50 [10] [µg/mL] | inhibition in vivo at 3.13 mg/kg [6] [%] | ILS at 3.13 mg/kg [9, 11] [%] | ILS at 12.5 mg/kg [9, 11] [%] | ILS at 3.13 mg/kg [9, 12] [%] | ILS at 12.5 mg/kg [9, 12] [%] | inhibition in vivo at 1.56 mg/kg [6] [%] | ILS at 50 mg/kg [9, 11] [%] | ILS at 50 mg/kg [9, 12] [%] | inhibition in vivo at 0.78 mg/kg ([6]; 0.78 mg/kg once a day) [%] | inhibition in vivo at 6.25 mg/kg [6] [%] | inhibition in vivo at 1.1 mg/kg ([6]; 1.10 mg/kg once a day) [%] |
| --- | --- | --- | --- | --- | --- | --- | --- | --- | --- | --- | --- | --- | --- | --- | --- | --- | --- | --- | --- |
| CN[C@@H]1CN(c2ccc3c(=O)c(C(=O)O)cn(-c4nccs4)c3n2)C[C@H]1OC (single isomer, unassigned) [Compound 1-2, (+)-1,4-Dihydro-7-(trans-3-methoxy-4-methylamino-1-pyrrolidinyl)-4-oxo-1-(2-thiazolyl)-1,8-naphthyridine-3-carboxylic acid] | 0.155 (≈ 0.386 µM) | 0.357 (≈ 0.889 µM) | 0.0873 (≈ 0.217 µM) | 0.0828 (≈ 0.206 µM) | 0.00641 (≈ 0.016 µM) | 0.114 (≈ 0.284 µM) | 0.0925 (≈ 0.23 µM) | 0.0396 (≈ 0.0986 µM) | – | – | – | – | – | – | – | – | – | – | 69 |
